Reference: ChEMBL document CHEMBL1201862, “PubChem BioAssay data set” (2004)
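Step 1: Grow cells in 96-well plates. Step 2: Expose to compound for 48 hours at 5 concentrations. Step 3: Interpolate endpoints linearly; if unreached, use highest concentration. GI50 is the concentration that inhibits growth by half.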 The source made the active and inactive calls. Rule as the data show it: active = GI50 up to about 1.1 µM and inactive = higher.

Experiments:
Assay in all cases: DTP human tumour cell line panel, 48 h
Hs-578T = tested on: Hs-578T
PC-3 = tested on: PC-3
SNB-75 = tested on: SNB-75
SW-620 = tested on: SW-620
TK-10 = tested on: TK-10
MDA-MB-435 = tested on: MDA-MB-435
NCI/ADR-RES = tested on: NCI/ADR-RES
HOP-62 = tested on: HOP-62
RXF 393 = tested on: RXF 393
OVCAR-8 = tested on: OVCAR-8
LOX IMVI = tested on: LOX IMVI
HCT-15 = tested on: HCT-15
K562 = tested on: K562
NCI-H460 = tested on: NCI-H460
BT-549 = tested on: BT-549
SK-MEL-2 = tested on: SK-MEL-2
A498 = tested on: A498
SF-268 = tested on: SF-268
SF-295 = tested on: SF-295
SNB-19 = tested on: SNB-19
SF-539 = tested on: SF-539
UACC-62 = tested on: UACC-62
T47D = tested on: T47D
OVCAR-5 = tested on: OVCAR-5
HL-60 = tested on: HL-60
RPMI-8226 = tested on: RPMI-8226
SK-OV-3 = tested on: SK-OV-3
OVCAR-3 = tested on: OVCAR-3
HOP-92 = tested on: HOP-92
SK-MEL-5 = tested on: SK-MEL-5
SK-MEL-28 = tested on: SK-MEL-28
A549 = tested on: A549
IGROV-1 = tested on: IGROV-1
U-251 = tested on: U-251
Malme-3M = tested on: Malme-3M
ACHN = tested on: ACHN
COLO 205 = tested on: COLO 205
786-0 = tested on: 786-0
M14 = tested on: M14
EKVX = tested on: EKVX
UACC-257 = tested on: UACC-257
DU-145 = tested on: DU-145
NCI-H226 = tested on: NCI-H226
NCI-H23 = tested on: NCI-H23
KM12 = tested on: KM12
SN12C = tested on: SN12C
HT-29 = tested on: HT-29
NCI-H522 = tested on: NCI-H522
OVCAR-4 = tested on: OVCAR-4
CAKI-1 = tested on: CAKI-1
HCT-116 = tested on: HCT-116
MCF7 = tested on: MCF7
MDA-N = tested on: MDA-N
MDA-MB-231 = tested on: MDA-MB-231
HCC 2998 = tested on: HCC 2998
CCRF-CEM = tested on: CCRF-CEM
MOLT-4 = tested on: MOLT-4
SR = tested on: SR
UO-31 = tested on: UO-31

Cc1sc2ccccc2[n+]1CCC(=O)O
GI50 (Hs-578T): > 100 µM (inactive) | GI50 (PC-3): > 100 µM (inactive) | GI50 (SNB-75): > 100 µM (inactive) | GI50 (SW-620): > 100 µM (inactive) | GI50 (TK-10): > 100 µM (inactive) | GI50 (MDA-MB-435): > 100 µM (inactive) | GI50 (NCI/ADR-RES): > 100 µM (inactive) | GI50 (HOP-62): > 100 µM (inactive) | GI50 (RXF 393): > 100 µM (inactive) | GI50 (OVCAR-8): > 100 µM (inactive) | GI50 (LOX IMVI): > 100 µM (inactive) | GI50 (HCT-15): > 100 µM | GI50 (K562): 6.67 µM (inactive) | GI50 (NCI-H460): > 100 µM (inactive) | GI50 (BT-549): > 100 µM (inactive) | GI50 (SK-MEL-2): > 100 µM (inactive) | GI50 (A498): > 100 µM (inactive) | GI50 (SF-268): > 100 µM (inactive) | GI50 (SF-295): > 100 µM (inactive) | GI50 (SNB-19): > 100 µM (inactive) | GI50 (SF-539): > 100 µM (inactive) | GI50 (UACC-62): > 100 µM (inactive) | GI50 (T47D): > 100 µM (inactive) | GI50 (OVCAR-5): > 100 µM (inactive) | GI50 (HL-60): 11.5 µM (inactive) | GI50 (RPMI-8226): > 100 µM (inactive) | GI50 (SK-OV-3): > 100 µM (inactive) | GI50 (OVCAR-3): > 100 µM (inactive) | GI50 (HOP-92): > 100 µM (inactive) | GI50 (SK-MEL-5): > 100 µM (inactive) | GI50 (SK-MEL-28): > 100 µM (inactive) | GI50 (A549): > 100 µM (inactive) | GI50 (IGROV-1): > 100 µM (inactive) | GI50 (U-251): > 100 µM (inactive) | GI50 (Malme-3M): > 100 µM (inactive) | GI50 (ACHN): > 100 µM (inactive) | GI50 (COLO 205): > 100 µM (inactive) | GI50 (786-0): > 100 µM (inactive) | GI50 (M14): > 100 µM (inactive) | GI50 (EKVX): > 100 µM (inactive) | GI50 (UACC-257): > 100 µM (inactive) | GI50 (DU-145): > 100 µM (inactive) | GI50 (NCI-H226): > 100 µM (inactive) | GI50 (NCI-H23): > 100 µM (inactive) | GI50 (KM12): > 100 µM (inactive) | GI50 (SN12C): > 100 µM (inactive) | GI50 (HT-29): > 100 µM (inactive) | GI50 (NCI-H522): > 100 µM (inactive) | GI50 (OVCAR-4): > 100 µM (inactive) | GI50 (CAKI-1): > 100 µM (inactive) | GI50 (HCT-116): > 100 µM (inactive) | GI50 (MCF7): > 100 µM (inactive) | GI50 (MDA-N): > 100 µM (inactive) | GI50 (MDA-MB-231): > 100 µM (inactive)

CCCCSC1=N/C(=C\c2ccc(N(C)C)cc2)C(NN)=N1
GI50 (Hs-578T): > 100 µM (inactive) | GI50 (PC-3): > 100 µM (inactive) | GI50 (SNB-75): > 100 µM (inactive) | GI50 (SW-620): > 100 µM (inactive) | GI50 (TK-10): > 100 µM (inactive) | GI50 (MDA-MB-435): > 100 µM (inactive) | GI50 (NCI/ADR-RES): > 100 µM (inactive) | GI50 (HCC 2998): > 100 µM (inactive) | GI50 (HOP-62): > 100 µM (inactive) | GI50 (RXF 393): > 100 µM (inactive) | GI50 (OVCAR-8): > 100 µM (inactive) | GI50 (LOX IMVI): > 100 µM (inactive) | GI50 (HCT-15): > 100 µM | GI50 (K562): > 100 µM (inactive) | GI50 (NCI-H460): > 100 µM (inactive) | GI50 (BT-549): > 100 µM (inactive) | GI50 (SK-MEL-2): > 100 µM (inactive) | GI50 (A498): > 100 µM (inactive) | GI50 (SF-268): > 100 µM (inactive) | GI50 (SF-295): > 100 µM (inactive) | GI50 (SNB-19): > 100 µM (inactive) | GI50 (UACC-62): > 100 µM (inactive) | GI50 (T47D): > 100 µM (inactive) | GI50 (CCRF-CEM): > 100 µM (inactive) | GI50 (OVCAR-5): > 100 µM (inactive) | GI50 (HL-60): > 100 µM (inactive) | GI50 (RPMI-8226): > 100 µM (inactive) | GI50 (SK-OV-3): > 100 µM (inactive) | GI50 (OVCAR-3): > 100 µM (inactive) | GI50 (HOP-92): > 100 µM (inactive) | GI50 (SK-MEL-28): > 100 µM (inactive) | GI50 (A549): > 100 µM (inactive) | GI50 (IGROV-1): > 100 µM (inactive) | GI50 (U-251): > 100 µM (inactive) | GI50 (Malme-3M): > 100 µM (inactive) | GI50 (ACHN): > 100 µM (inactive) | GI50 (786-0): > 100 µM (inactive) | GI50 (M14): > 100 µM (inactive) | GI50 (EKVX): > 100 µM (inactive) | GI50 (MOLT-4): > 100 µM (inactive) | GI50 (UACC-257): > 100 µM (inactive) | GI50 (DU-145): > 100 µM (inactive) | GI50 (NCI-H23): > 100 µM (inactive) | GI50 (KM12): > 100 µM (inactive) | GI50 (SN12C): > 100 µM (inactive) | GI50 (HT-29): > 100 µM (inactive) | GI50 (NCI-H522): > 100 µM (inactive) | GI50 (OVCAR-4): > 100 µM (inactive) | GI50 (CAKI-1): > 100 µM (inactive) | GI50 (HCT-116): > 100 µM (inactive) | GI50 (MCF7): > 100 µM (inactive) | GI50 (MDA-N): > 100 µM (inactive) | GI50 (MDA-MB-231): > 100 µM (inactive)

Cc1c2c(n3c(nc4ccccc43)c1C#N)SCC2
GI50 (Hs-578T): > 10 µM (inactive) | GI50 (PC-3): > 10 µM (inactive) | GI50 (SNB-75): > 10 µM (inactive) | GI50 (SW-620): > 10 µM (inactive) | GI50 (TK-10): > 10 µM (inactive) | GI50 (MDA-MB-435): > 10 µM (inactive) | GI50 (NCI/ADR-RES): > 10 µM (inactive) | GI50 (HOP-62): > 10 µM (inactive) | GI50 (OVCAR-8): > 10 µM (inactive) | GI50 (LOX IMVI): > 10 µM (inactive) | GI50 (HCT-15): > 10 µM | GI50 (K562): > 10 µM (inactive) | GI50 (NCI-H460): > 10 µM (inactive) | GI50 (BT-549): > 10 µM (inactive) | GI50 (SK-MEL-2): > 10 µM (inactive) | GI50 (A498): 3.36 µM (inactive) | GI50 (SF-268): > 10 µM (inactive) | GI50 (SF-295): > 10 µM (inactive) | GI50 (SNB-19): > 10 µM (inactive) | GI50 (SF-539): > 10 µM (inactive) | GI50 (UACC-62): > 10 µM (inactive) | GI50 (T47D): > 10 µM (inactive) | GI50 (CCRF-CEM): > 10 µM (inactive) | GI50 (OVCAR-5): > 10 µM (inactive) | GI50 (HL-60): > 10 µM (inactive) | GI50 (RPMI-8226): > 10 µM (inactive) | GI50 (SK-OV-3): > 10 µM (inactive) | GI50 (OVCAR-3): > 10 µM (inactive) | GI50 (SR): > 10 µM (inactive) | GI50 (HOP-92): > 10 µM (inactive) | GI50 (SK-MEL-5): > 10 µM (inactive) | GI50 (SK-MEL-28): > 10 µM (inactive) | GI50 (A549): > 10 µM (inactive) | GI50 (IGROV-1): > 10 µM (inactive) | GI50 (U-251): > 10 µM (inactive) | GI50 (Malme-3M): > 10 µM (inactive) | GI50 (ACHN): > 10 µM (inactive) | GI50 (786-0): 8.71 µM (inactive) | GI50 (M14): > 10 µM (inactive) | GI50 (EKVX): > 10 µM (inactive) | GI50 (MOLT-4): > 10 µM (inactive) | GI50 (UACC-257): > 10 µM (inactive) | GI50 (DU-145): > 10 µM (inactive) | GI50 (NCI-H226): > 10 µM (inactive) | GI50 (NCI-H23): > 10 µM (inactive) | GI50 (KM12): > 10 µM (inactive) | GI50 (SN12C): > 10 µM (inactive) | GI50 (HT-29): > 10 µM (inactive) | GI50 (OVCAR-4): > 10 µM (inactive) | GI50 (CAKI-1): > 10 µM (inactive) | GI50 (HCT-116): > 10 µM (inactive) | GI50 (MCF7): > 10 µM (inactive) | GI50 (MDA-N): > 10 µM (inactive) | GI50 (MDA-MB-231): > 10 µM (inactive) | GI50 (UO-31): > 10 µM (inactive)
